From patent publication US5633255A, “1,2-dihydro-2-oxo-3-aminoquinoxaline derivatives, their preparation and their therapeutic application” (Pierre Fabre Medicament, priority 1992, dated 1997) come the findings set out here.

Structures are written as SMILES. Values after ≈ are worked out from the molar mass of the structure shown. Where a name gives a salt, the structure may show the parent alone.

Test [1] deals with trachea (contraction induced by potassium chloride). As to the kind of experiment: antagonism of the effect of potassium chloride (contractions of isolated guinea pig trachea). The note with it: Cavia porcellus, 5 min, potassium chloride 1850 μg/ml, 5 min contact, 37° C. The format is cell-based. The protocol: (§1) To this end, the compounds were studied for their antagonistic effect on the contractions induced by various products according to the following procedure. A piece of trachea from a male three-colored guinea pig weighing 400 g on average is cut into rings and mounted (2.5 cm approximately) in an insulated organ tank which is thermostatted at 37° C. and filled with oxygenated Tyrode's solution. The isometric contractions induced by the various mediators are recorded using a Gould Statham UC2 sensor (Gould Inc. Oxnard, Calif., U.S.A.) or a Palmer Bioscience UF1 sensor connected to a potentiometric recorder ([…], Selb, FRG). At the start of the experiment, the fragment of trachea is subjected to a tension of 1 g and left to stand for 1 hour. The following mediator concentrations are used (concentrations generally inducing a maximum contraction): histamine dihydrochloride, 10 μg/ml; potassium chloride, 1850 μg/ml. The concentrations of agents used result in contractions which become maximal after 5 to 15 min. depending on the mediators and remain at a steady level thereafter. A concentration of the product studied is administered for each contraction and the product is left in contact with the trachea for 5 min. The possible inhibition obtained after this time is measured (percentage of variation in the amplitude of the contraction). The trachea is next washed for 15 seconds and left to stand for 10 min. approximately (time necessary to return to the base tonus) before inducing a new contraction. The water-insoluble products are diluted in 0.178% (v.v) (final bath concentration) dimethyl sulfoxide (DMSO). […] The 50% inhibitory concentrations (IC50) are calculated using an SAS (Statistical Analysis System) program based on the model of Bliss and […] (Bliss C. I. and […]. Biological Assay Ann. Rev. Physiol. 5, 479, 1943).

A further test has as its system Zymosan Pleurisy. As to the kind of experiment: pleurisy model with Zymosan in rats. The format is in vivo, rat (male Sprague Dawley). Particulars: po; rat, 100 mg/kg p.o. one hour before Zymosan (10 mg intrapleural), exudate measured 1 hour later; read-out: Zymosan Pleurisy volume pleural exudate. The protocol: The compounds of the invention were also tested on the pleurisy model with Zymosan in rats ([…] et al. Pharmacol. Res., 21, 385, 1989) according to the following procedure: 10 mg of Zymosan in a volume of 0.15 ml of sterile 0.9% NaCl are injected into the pleural cavity of male Sprague Dawley rats mildly anesthetized with ether. The animals are sacrificed 1 hour later and the pleural exudate is withdrawn and measured. The animals are kept unfed from the evening before. The products are administered p.o. one hour before injection of the inflammation-inducing agent, at a dose of 100 mg/kg.

Test [2] deals with trachea (contraction induced by histamine). Briefly: antagonism of the effect of histamine (contractions of isolated guinea pig trachea). It is filed as cell-based. Particulars: Cavia porcellus, 5 min, histamine dihydrochloride 10 μg/ml, 5 min contact, 37° C. The protocol:
as §1

In general, IC50 refers to the point on the concentration scale where inhibition reaches its midpoint. Take `CCCn1c(=O)c(N)nc2ccccc21.Cl` [Compound 5, 1-n-propyl-1,2-dihydro-2-oxo-3-aminoquinoxaline hydrochloride]: the IC50 is 19.3 mg/L in test [1] and 4.6 mg/L in test [2]. Moreover, the change in vivo at 100 mg/kg in the test with Zymosan Pleurisy is -21%.

As for `CCCn1c(=O)c(NC)nc2ccccc21.Cl` [Compound 6, 1-n-propyl-1,2-dihydro-2-oxo-3-methylaminoquinoxaline hydrochloride], the IC50 in test [1] is 4.7 mg/L; in test [2], 6.4 mg/L. For the same compound, the change in vivo at 100 mg/kg in the test with Zymosan Pleurisy is -27%.

`CCCn1c(=O)c(N(C)C)nc2ccccc21.Cl` [Compound 7, 1-n-propyl-1,2-dihydro-2-oxo-3-dimethylaminoquinoxaline hydrochloride]: the results for the IC50 in test [1] and in test [2] were 28 mg/L and 10.7 mg/L, respectively. Besides, the change in vivo at 100 mg/kg with Zymosan Pleurisy is -44%.

Consider `CCCCn1c(=O)c(N)nc2ccccc21` [Compound 8], for which the IC50 came to 9.6 mg/L (≈ 44.2 µM) in test [1] and 1.7 mg/L (≈ 7.82 µM) in test [2]. Moreover, in the test with Zymosan Pleurisy, the change in vivo at 100 mg/kg was 4%.

On to `CCCCn1c(=O)c(NC)nc2ccccc21` [Compound 9], for which the IC50 in test [1] came out at 11.1 mg/L (≈ 48 µM); in test [2], 0.55 mg/L (≈ 2.38 µM). The change in vivo at 100 mg/kg in the test on Zymosan Pleurisy is -29%.

Turning to `CCCCn1c(=O)c(N(C)C)nc2ccccc21` [Compound 10], the values for the IC50 in test [1] and in test [2] were 45 mg/L (≈ 183 µM) and 5.7 mg/L (≈ 23.2 µM), respectively. Also, the change in vivo at 100 mg/kg in the test with Zymosan Pleurisy is -47%.

With `C=CCn1c(=O)c(N)nc2ccccc21` [Compound 11], the half-inhibitory concentration (IC50) amounted to 21 mg/L (≈ 104 µM) in test [1] and 5.9 mg/L (≈ 29.3 µM) in test [2]. Also, the change in vivo at 100 mg/kg in the test on Zymosan Pleurisy is -33%.

Regarding `C=CCn1c(=O)c(NC)nc2ccccc21` [Compound 12], the figures for the IC50 in test [1] and in test [2] were 9.1 mg/L (≈ 42.3 µM) and 1.1 mg/L (≈ 5.11 µM), respectively. Moreover, the change in vivo at 100 mg/kg in the test with Zymosan Pleurisy is -31%.

As to `C=CCn1c(=O)c(N(C)C)nc2ccccc21` [Compound 13], the IC50 in test [1] worked out at 19.3 mg/L (≈ 84.2 µM); in test [2], 8.6 mg/L (≈ 37.5 µM). The change in vivo at 100 mg/kg in the test with Zymosan Pleurisy is -43%.

As to `CC(C)=CCn1c(=O)c(N)nc2ccccc21` [Compound 14, hydrochloride], the IC50 turned out to be 7.4 mg/L in test [1] and 2.6 mg/L in test [2]. Besides, the change in vivo at 100 mg/kg with Zymosan Pleurisy was -14%.

As to `CNc1nc2ccccc2n(CC=C(C)C)c1=O` [Compound 15], in the test on Zymosan Pleurisy, the change in vivo at 100 mg/kg was -5%. Besides, half-maximal inhibition in test [2] (IC50) was put at 0.65 mg/L (≈ 2.67 µM).

Consider `CC(C)=CCn1c(=O)c(N(C)C)nc2ccccc21` [Compound 16], for which the IC50 in test [2] came to 13.5 mg/L (≈ 52.5 µM).

Turning to `CC(C)(O)CCn1c(=O)c(N)nc2ccccc21` [Compound 17, 1-(3-methyl-3-hydroxy)butyl-1,2-dihydro-2-oxo-3-aminoquinoxaline hydrochloride], the IC50 in test [1] came to 45 mg/L; in test [2], 23 mg/L.

On to `Cn1c(=O)c2[nH]cnc2n(C)c1=O` [Theophylline, reference compound], for which the concentration for half-maximal inhibition (IC50) in test [1] and in test [2] was 30 mg/L (≈ 167 µM) throughout.
